{"source": "patent US20170197979A1", "about": "“BENZOTHIADIAZOLAMINES” (BAYER PHARMA AKTIENGESELLSCHAFT, priority 2014, published 2017)", "data": [{"molecular_target": "T1, human full-length MKNK1 (Homo sapiens, UniProt Q9BUB5, T385D)", "T1 construct": "GST (N); purchased Carna Biosciences 02-145; host or cells: insect cells (baculovirus expression system)", "T1 sequence (Q9BUB5 1-424 isoform Q9BUB5-2 T344D)": "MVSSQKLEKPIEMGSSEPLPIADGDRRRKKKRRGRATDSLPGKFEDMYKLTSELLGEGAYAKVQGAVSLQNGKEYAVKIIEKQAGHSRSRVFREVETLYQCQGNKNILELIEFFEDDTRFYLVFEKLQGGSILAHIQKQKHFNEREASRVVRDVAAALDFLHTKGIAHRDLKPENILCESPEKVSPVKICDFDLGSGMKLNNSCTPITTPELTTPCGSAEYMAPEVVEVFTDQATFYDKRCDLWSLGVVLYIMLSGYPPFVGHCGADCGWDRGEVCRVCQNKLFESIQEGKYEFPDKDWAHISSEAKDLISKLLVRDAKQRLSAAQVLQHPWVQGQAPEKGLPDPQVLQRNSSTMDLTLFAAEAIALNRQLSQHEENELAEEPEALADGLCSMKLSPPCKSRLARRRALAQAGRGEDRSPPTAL", "assay": "MKNK1 kinase high ATP assay (TR-FRET)", "format": "biochemical", "conditions": "TR-FRET, high ATP (2 mM final), 15 min preincubation with enzyme, GST-MKNK1 (T344D); read-out: MKNK1 IC50", "description": "MKNK1 Kinase High ATP Assay\nMKNK1-inhibitory activity at high ATP of compounds of the present invention after their preincubation with MKNK1 was quantified employing the TR-FRET-based MKNK1 high ATP assay as described in the following paragraphs.\nA recombinant fusion protein of Glutathione-S-Transferase (GST, N-terminally) and human full-length MKNK1 (amino acids 1-424 and T344D of accession number BAA 19885.1), expressed in insect cells using baculovirus expression system and purified via glutathione sepharose affinity chromatography, was purchased from Carna Biosciences (product no 02-145) and used as enzyme. As substrate for the kinase reaction the biotinylated peptide biotin-Ahx-IKKRKLTRRKSLKG (C-terminus in amide form) was used, which can be purchased e.g. from the company Biosyntan (Berlin-Buch, Germany).\nFor the assay 50 nL of a 100 fold concentrated solution of the test compound in DMSO was pipetted into a black low volume 384 well microtiter plate (Greiner Bio-One, Frickenhausen, Germany), 2 μL of a solution of MKNK1 in aqueous assay buffer [50 mM HEPES pH 7.5, 5 mM MgCl2, 1.0 mM dithiothreitol, 0.005% (v/v) Nonidet-P40 (Sigma)] was added and the mixture was incubated for 15 min at 22° C. to allow pre-binding of the test compounds to the enzyme before the start of the kinase reaction. Then the kinase reaction was started by the addition of 3 μL of a solution of adenosine-tri-phosphate (ATP, 3.3 mM=>final conc. in the 5 μL assay volume is 2 mM) and substrate (0.1 μM=>final conc. in the 5 μL assay volume is 0.06 μM) in assay buffer and the resulting mixture was incubated for a reaction time of 30 min at 22° C. The concentration of MKNK1 was adjusted depending of the activity of the enzyme lot and was chosen appropriate to have the assay in the linear range, typical concentrations were in the range of 0.003 μg/mL. The reaction was stopped by the addition of 5 μL of a solution of TR-FRET detection reagents (5 nM streptavidine-XL665 [Cisbio Bioassays, Codolet, France] and 1 nM anti-ribosomal protein S6 (pSer236)-antibody from Invitrogen [#44921G] and 1 nM LANCE EU-W1024 labeled ProteinG [Perkin-Elmer, product no. AD0071]) in an aqueous EDTA-solution (100 mM EDTA, 0.1% (w/v) bovine serum albumin in 50 mM HEPES pH 7.5).\nThe resulting mixture was incubated for 1 h at 22° C. to allow the formation of complex between the phosphorylated biotinylated peptide and the detection reagents. Subsequently the amount of phosphorylated substrate was evaluated by measurement of the resonance energy transfer from the Eu-chelate to the streptavidine-XL. Therefore, the fluorescence emissions at 620 nm and 665 nm after excitation at 350 nm were measured in a TR-FRET reader, e.g. a Rubystar (BMG Labtechnologies, Offenburg, Germany) or a Viewlux (Perkin-Elmer). The ratio of the emissions at 665 nm and at […] was taken as the measure for the amount of phosphorylated substrate. The data were normalised (enzyme reaction without inhibitor=0% inhibition, all other assay components but no enzyme=100% inhibition).", "units": {"IC50": "nM"}, "values": [{"smiles": "CC(C)N(C)C(=O)[C@H]1CCc2c(sc3ncnc(Nc4ccc5nnsc5c4)c23)C1", "note": "[Example 23, (7S)-4-(1,2,3-Benzothiadiazol-6-ylamino)-N-methyl-N-(propan-2-yl)-5,6,7,8-tetrahydro[1]benzothieno[2,3-d]pyrimidine-7-carboxamide]", "IC50": 41}, {"smiles": "O=C([C@H]1CCc2c(sc3ncnc(Nc4ccc5nnsc5c4)c23)C1)N1CCC1", "note": "[Example 24, Azetidin-1-yl[(7S)-4-(1,2,3-benzothiadiazol-6-ylamino)-5,6,7,8-tetrahydro[1]benzothieno[2,3-d]pyrimidin-7-yl]methanone]", "IC50": 33}, {"smiles": "CN(CCN)C(=O)[C@H]1CCc2c(sc3ncnc(Nc4ccc5nnsc5c4)c23)C1", "note": "[Example 25, (7S)—N-(2-Aminoethyl)-4-(1,2,3-benzothiadiazol-6-ylamino)-N-methyl-5,6,7,8-tetrahydro[1]benzothieno[2,3-d]pyrimidine-7-carboxamide]", "IC50": 3.2}, {"smiles": "CN(CC(F)F)C(=O)[C@H]1CCc2c(sc3ncnc(Nc4ccc5nnsc5c4)c23)C1", "note": "[Example 26, (7S)-4-(1,2,3-Benzothiadiazol-6-ylamino)-N-(2,2-difluoroethyl)-N-methyl-5,6,7,8-tetrahydro[1]benzothieno[2,3-d]pyrimidine-7-carboxamide]", "IC50": 11}, {"smiles": "CN(CC(C)(C)O)C(=O)[C@H]1CCc2c(sc3ncnc(Nc4ccc5nnsc5c4)c23)C1", "note": "[Example 27, (7S)-4-(1,2,3-Benzothiadiazol-6-ylamino)-N-(2-hydroxy-2-methylpropyl)-N-methyl-5,6,7,8-tetrahydro[1]benzothieno[2,3-d]pyrimidine-7-carboxamide]", "IC50": 15}, {"smiles": "CCN(CCO)C(=O)[C@H]1CCc2c(sc3ncnc(Nc4ccc5nnsc5c4)c23)C1", "note": "[Example 28, (7S)-4-(1,2,3-Benzothiadiazol-6-ylamino)-N-ethyl-N-(2-hydroxyethyl)-5,6,7,8-tetrahydro[1]benzothieno[2,3-d]pyrimidine-7-carboxamide]", "IC50": 8.6}, {"smiles": "CN(C)C(=O)CN(C)C(=O)[C@H]1CCc2c(sc3ncnc(Nc4ccc5nnsc5c4)c23)C1", "note": "[Example 29, (7S)-4-(1,2,3-Benzothiadiazol-6-ylamino)-N-[2-(dimethylamino)-2-oxoethyl]-N-methyl-5,6,7,8-tetrahydro[1]benzothieno[2,3-d]pyrimidine-7-carboxamide]", "IC50": 7}, {"smiles": "CN(C)CCCN(C)C(=O)[C@H]1CCc2c(sc3ncnc(Nc4ccc5nnsc5c4)c23)C1", "note": "[Example 30, (7S)-4-(1,2,3-Benzothiadiazol-6-ylamino)-N-[3-(dimethylamino)propyl]-N-methyl-5,6,7,8-tetrahydro[1]benzothieno[2,3-d]pyrimidine-7-carboxamide]", "IC50": 8.1}, {"smiles": "O=C([C@H]1CCc2c(sc3ncnc(Nc4ccc5nnsc5c4)c23)C1)N1CC(F)(F)C1", "note": "[Example 31, [(7S)-4-(1,2,3-Benzothiadiazol-6-ylamino)-5,6,7,8-tetrahydro[1]benzothieno[2,3-d]pyrimidin-7-yl](3,3-difluoroazetidin-1-yl)methanone]", "IC50": 14}, {"smiles": "O=C([C@H]1CCc2c(sc3ncnc(Nc4ccc5nnsc5c4)c23)C1)N1CC(O)C1", "note": "[Example 32, [(7S)-4-(1,2,3-Benzothiadiazol-6-ylamino)-5,6,7,8-tetrahydro[1]benzothieno[2,3-d]pyrimidin-7-yl](3-hydroxyazetidin-1-yl)methanone]", "IC50": 33}, {"smiles": "CC1(O)CN(C(=O)[C@H]2CCc3c(sc4ncnc(Nc5ccc6nnsc6c5)c34)C2)C1", "note": "[Example 33, [(7S)-4-(1,2,3-Benzothiadiazol-6-ylamino)-5,6,7,8-tetrahydro[1]benzothieno[2,3-d]pyrimidin-7-yl](3-hydroxy-3-methylazetidin-1-yl)methanone]", "IC50": 8}, {"smiles": "CN1CCN(C(=O)[C@H]2CCc3c(sc4ncnc(Nc5ccc6nnsc6c5)c34)C2)CC1", "note": "[Example 34, [(7S)-4-(1,2,3-Benzothiadiazol-6-ylamino)-5,6,7,8-tetrahydro[1]benzothieno[2,3-d]pyrimidin-7-yl](4-methylpiperazin-1-yl)methanone]", "IC50": 13}, {"smiles": "COc1cc2nnsc2cc1Nc1ncnc2sc3c(c12)CC[C@H](C(=O)N(C)C)C3", "note": "[Example 35, (7S)-4-[(5-Methoxy-1,2,3-benzothiadiazol-6-yl)amino]-N,N-dimethyl-5,6,7,8-tetrahydro[1]benzothieno[2,3-d]pyrimidine-7-carboxamide]", "IC50": 1.3}, {"smiles": "COc1cc2nnsc2cc1Nc1ncnc2sc3c(c12)CC[C@H](C(=O)N(C)CC(C)(C)O)C3", "note": "[Example 36, (7S)—N-(2-Hydroxy-2-methylpropyl)-4-[(5-methoxy-1,2,3-benzothiadiazol-6-yl)amino]-N-methyl-5,6,7,8-tetrahydro[1]benzothieno[2,3-d]pyrimidine-7-carboxamide]", "IC50": 0.8}, {"smiles": "COc1cc2nnsc2cc1Nc1ncnc2sc3c(c12)CC[C@H](C(=O)N(C)C(C)C)C3", "note": "[Example 37, (7S)-4-[(5-Methoxy-1,2,3-benzothiadiazol-6-yl)amino]-N-methyl-N-(propan-2-yl)-5,6,7,8-tetrahydro[1]benzothieno[2,3-d]pyrimidine-7-carboxamide]", "IC50": 1.2}, {"smiles": "CCN(CCO)C(=O)[C@H]1CCc2c(sc3ncnc(Nc4cc5snnc5cc4OC)c23)C1", "note": "[Example 38, (7S)—N-Ethyl-N-(2-hydroxyethyl)-4-[(5-methoxy-1,2,3-benzothiadiazol-6-yl)amino]-5,6,7,8-tetrahydro[1]benzothieno[2,3-d]pyrimidine-7-carboxamide]", "IC50": 1.1}, {"smiles": "COCCN(C)C(=O)[C@H]1CCc2c(sc3ncnc(Nc4cc5snnc5cc4OC)c23)C1", "note": "[Example 39, (7S)-4-[(5-Methoxy-1,2,3-benzothiadiazol-6-yl)amino]-N-(2-methoxyethyl)-N-methyl-5,6,7,8-tetrahydro[1]benzothieno[2,3-d]pyrimidine-7-carboxamide]", "IC50": 0.6}, {"smiles": "COc1cc2nnsc2cc1Nc1ncnc2sc3c(c12)CC[C@H](C(=O)N(C)CCNC(=O)OC(C)(C)C)C3", "note": "[Example 40, tert-Butyl {2-[({(7S)-4-[(5-methoxy-1,2,3-benzothiadiazol-6-yl)amino]-5,6,7,8-tetrahydro[1]benzothieno[2,3-d]pyrimidin-7-yl}carbonyl)(methyl)amino]ethyl}carbamate]", "IC50": 0.8}, {"smiles": "COc1cc2nnsc2cc1Nc1ncnc2sc3c(c12)CC[C@H](C(=O)N1CC(N(C)C)C1)C3", "note": "[Example 41, [3-(Dimethylamino)azetidin-1-yl]{(7S)-4-[(5-methoxy-1,2,3-benzothiadiazol-6-yl)amino]-5,6,7,8-tetrahydro[1]benzothieno[2,3-d]pyrimidin-7-yl}methanone]", "IC50": 0.6}, {"smiles": "COc1cc2nnsc2cc1Nc1ncnc2sc3c(c12)CC[C@H](C(=O)N(C)CC(=O)N(C)C)C3", "note": "[Example 42, (7S)—N-[2-(Dimethylamino)-2-oxoethyl]-4-[(5-methoxy-1,2,3-benzothiadiazol-6-yl)amino]-N-methyl-5,6,7,8-tetrahydro[1]benzothieno[2,3-d]pyrimidine-7-carboxamide]", "IC50": 0.8}, {"smiles": "COc1cc2nnsc2cc1Nc1ncnc2sc3c(c12)CC[C@H](C(=O)N(C)CCCN(C)C)C3", "note": "[Example 43, (7S)—N-[3-(Dimethylamino)propyl]-4-[(5-methoxy-1,2,3-benzothiadiazol-6-yl)amino]-N-methyl-5,6,7,8-tetrahydro[1]benzothieno[2,3-d]pyrimidine-7-carboxamide]", "IC50": 1.7}, {"smiles": "COc1cc2nnsc2cc1Nc1ncnc2sc3c(c12)CC[C@H](C(=O)N1CC(C#N)C1)C3", "note": "[Example 44, 1-({(7S)-4-[(5-Methoxy-1,2,3-benzothiadiazol-6-yl)amino]-5,6,7,8-tetrahydro[1]benzothieno[2,3-d]pyrimidin-7-yl}carbonyl)azetidine-3-carbonitrile]", "IC50": 1.7}, {"smiles": "COc1cc2nnsc2cc1Nc1ncnc2sc3c(c12)CC[C@H](C(=O)N1CC(C)(O)C1)C3", "note": "[Example 45, (3-Hydroxy-3-methylazetidin-1-yl){(7S)-4-[(5-methoxy-1,2,3-benzothiadiazol-6-yl)amino]-5,6,7,8-tetrahydro[1]benzothieno[2,3-d]pyrimidin-7-yl}methanone]", "IC50": 1.5}]}]}
